Results from publication PMC5394417, “Investigating the molecular mechanism of positive and negative allosteric modulators in the calcium-sensing receptor dimer” (Scientific Reports, 2017).

Columns and labels:
Format in all cases: cell-based
[1] = biological target: T1, HA-E837A CaSR mutant (Rattus norvegicus, UniProt P48442, E837A); assay: IP-One assay, HEK293T transiently transfected; conditions: for EC50 / pEC50 ± S.E.M. / Max ± S.E.M.: HA-E837A; for effect on the Ca^2+-induced response: E837A mutant
T1 construct: mGluR5 signal peptide (N); expressed in transfected cells; host or cells: HEK293T
T1 sequence (P48442 20-1079 E837A): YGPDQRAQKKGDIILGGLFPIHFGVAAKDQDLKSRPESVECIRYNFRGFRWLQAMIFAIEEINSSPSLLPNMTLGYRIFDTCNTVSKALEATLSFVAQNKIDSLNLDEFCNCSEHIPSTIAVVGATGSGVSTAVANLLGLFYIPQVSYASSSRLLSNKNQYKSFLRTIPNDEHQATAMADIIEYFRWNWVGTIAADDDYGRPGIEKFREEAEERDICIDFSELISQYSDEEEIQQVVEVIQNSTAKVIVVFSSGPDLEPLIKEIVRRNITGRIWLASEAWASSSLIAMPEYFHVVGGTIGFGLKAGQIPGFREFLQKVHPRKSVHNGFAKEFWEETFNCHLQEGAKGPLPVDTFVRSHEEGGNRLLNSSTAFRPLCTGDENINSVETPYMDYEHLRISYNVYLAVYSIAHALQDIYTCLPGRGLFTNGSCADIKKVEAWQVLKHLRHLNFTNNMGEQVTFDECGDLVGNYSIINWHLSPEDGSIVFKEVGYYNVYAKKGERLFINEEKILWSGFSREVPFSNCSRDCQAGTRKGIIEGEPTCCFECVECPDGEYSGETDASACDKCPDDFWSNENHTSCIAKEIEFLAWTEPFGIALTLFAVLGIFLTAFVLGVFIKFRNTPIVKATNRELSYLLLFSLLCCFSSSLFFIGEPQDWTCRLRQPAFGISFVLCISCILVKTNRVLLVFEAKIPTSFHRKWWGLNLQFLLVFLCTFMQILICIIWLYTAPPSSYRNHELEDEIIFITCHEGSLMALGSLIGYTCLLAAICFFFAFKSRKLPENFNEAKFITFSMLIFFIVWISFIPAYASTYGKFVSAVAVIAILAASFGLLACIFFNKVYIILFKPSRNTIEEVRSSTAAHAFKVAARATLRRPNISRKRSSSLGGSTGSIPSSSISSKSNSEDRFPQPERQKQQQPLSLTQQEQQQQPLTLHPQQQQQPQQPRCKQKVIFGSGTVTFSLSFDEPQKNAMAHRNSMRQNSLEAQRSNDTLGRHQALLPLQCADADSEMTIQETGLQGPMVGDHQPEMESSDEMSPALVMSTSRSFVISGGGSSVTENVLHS
Method: (§1) Human embryonic kidney (HEK) 293T cells were cultured in DMEM supplemented with 10% dFBS and 1% P/S at 37 °C and 5% CO2. 48 h prior to assay, transient transfection was performed using Lipofectamine 2000 as the transfection reagent. White opaque 96-well culture plates (PerkinElmer, Waltham, MA, USA) were used for the ELISA and the TR-FRET dimerization assay, while clear tissue culture treated 96-well plates (Corning, Corning, NY, USA) were used for the IP-One assay. Both plate types were coated with poly-D-lysine before addition of cells and transfection mix. 0.25 μl/well of Lipofectamine 2000 were diluted in 25 μl/well of Opti-MEM and incubated at room temperature (RT) for 5 min. 0.03 μg/well of DNA was diluted in 25 μl/well of Opti-MEM, and subsequently mixed with the Lipofectamine 2000 dilution and incubated 20 min at RT before addition to the plates. Cell suspensions of 170.000 HEK293T cells/mL were prepared in complete growth medium and 100 μl/well (17.000 cells/well) was added to the plates, which were incubated for 48 h at 37 °C and 5% CO2 before performing assays.
(§2) Functional activity was measured using the IP-One assay, which is an IP1 accumulation assay. For agonist testing, ligands were prepared in final concentrations in ligand buffer (HBSS, 20 mM HEPES, pH 7.4 supplemented with 20 mM LiCl). Cells were washed once with 100 μl/well of assay buffer (HBSS, 20 mM HEPES, pH 7.4) and 50 μl/well of agonist solution was added after which plates were incubated at 37 °C for 30 min. Subsequently, ligand solutions were removed and cells were washed with 100 μl/well of assay buffer. Cell lysis was performed by addition of 30 μl/well of IP-One Conjugate & Lysis Buffer (Cisbio Bioassays, Codolet, France) and plates were incubated at RT for 30 min. Afterwards, 30 μl/well of assay buffer was added to dilute the cell lysate. 10 μl/well of cell lysate was transferred from the 96-well plate to a 384-well Optiplate and 10 μl/well of detection solution (Assay buffer + 2.5% of anti-IP1 antibody cryptate Terbium conjugate + 2.5% IP1-d2 conjugate (Cisbio Bioassays, Codolet, France)) was also added. The 384-well plate was incubated for 1 h at RT in dark before being measured on an EnVision plate reader (PerkinElmer, Waltham, MA, USA). Upon excitation at 340 nm, emission at 615 nm and 665 nm was measured, and the FRET ratio (665 nm/615 nm) was converted to IP1 concentrations by interpolating values from an IP1 standard curve generated from a provided IP1 calibrator (Cisbio Bioassays, Codolet, France). When testing allosteric modulators, cells were pre-incubated for 30 min at 37 °C with 50 μl/well of ligand buffer supplemented with allosteric modulator and a final concentration of 1% DMSO. Afterwards, the buffer solution was removed and 50 μl/well of agonist solution in ligand buffer supplemented with allosteric modulator and a final concentration of 1% DMSO was added. Plates were incubated for 30 min at 37 °C followed by one wash in 100 μl/well of assay buffer. Cell lysis and detection was performed as described above.

[2] = biological target: T2, S170A/E837A:F801A/E837A heterodimer (Rattus norvegicus, UniProt P48442, E837A/F801A/S170A); assay: IP-One trans-activation assay, co-expression 1:1 in HEK293T
T2 construct: mGluR5 signal peptide (N); expressed in transfected cells; host or cells: HEK293T
T2 sequence (P48442 20-1079 S170A/E837A): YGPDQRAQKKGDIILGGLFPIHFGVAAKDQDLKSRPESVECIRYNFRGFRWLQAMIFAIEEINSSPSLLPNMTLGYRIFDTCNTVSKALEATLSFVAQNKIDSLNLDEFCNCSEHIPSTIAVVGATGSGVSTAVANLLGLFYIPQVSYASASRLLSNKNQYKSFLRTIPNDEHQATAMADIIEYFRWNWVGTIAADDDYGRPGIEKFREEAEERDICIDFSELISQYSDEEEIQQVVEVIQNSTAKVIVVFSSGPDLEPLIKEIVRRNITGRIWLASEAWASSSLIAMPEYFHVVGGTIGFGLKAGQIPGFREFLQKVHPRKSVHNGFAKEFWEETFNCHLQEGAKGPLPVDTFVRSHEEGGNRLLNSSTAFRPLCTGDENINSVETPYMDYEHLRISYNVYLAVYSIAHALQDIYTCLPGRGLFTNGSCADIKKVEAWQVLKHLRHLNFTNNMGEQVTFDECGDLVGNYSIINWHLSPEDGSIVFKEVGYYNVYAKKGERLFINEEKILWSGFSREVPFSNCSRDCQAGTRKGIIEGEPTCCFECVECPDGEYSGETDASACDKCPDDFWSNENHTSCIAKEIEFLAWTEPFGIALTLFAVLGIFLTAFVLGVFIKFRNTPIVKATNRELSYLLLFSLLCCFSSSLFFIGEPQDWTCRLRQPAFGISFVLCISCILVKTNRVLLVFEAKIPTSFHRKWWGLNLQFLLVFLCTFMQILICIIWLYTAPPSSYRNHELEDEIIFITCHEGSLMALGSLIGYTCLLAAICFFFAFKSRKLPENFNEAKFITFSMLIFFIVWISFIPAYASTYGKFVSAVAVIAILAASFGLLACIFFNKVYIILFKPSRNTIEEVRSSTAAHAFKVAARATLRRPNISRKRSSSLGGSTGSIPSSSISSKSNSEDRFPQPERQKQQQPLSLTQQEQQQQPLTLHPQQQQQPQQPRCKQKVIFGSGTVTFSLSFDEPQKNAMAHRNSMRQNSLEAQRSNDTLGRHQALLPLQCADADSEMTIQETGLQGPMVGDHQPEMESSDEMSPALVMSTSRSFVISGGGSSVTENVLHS
T2 sequence (P48442 20-1079 F801A/E837A): as the sequence (P48442 20-1079 S170A/E837A) above, with A151S, F782A counted along it
Method: as §1, §2

[3] = biological target: T3, S170A:F801A/E837A heterodimer (Rattus norvegicus, UniProt P48442, E837A/F801A/S170A); assay: as above
T3 construct: mGluR5 signal peptide (N); expressed in transfected cells; host or cells: HEK293T
T3 sequence (P48442 20-1079 S170A): as the sequence (P48442 20-1079 S170A/E837A) above, with A818E counted along it
T3 sequence (P48442 20-1079 F801A/E837A): as the sequence (P48442 20-1079 S170A/E837A) above, with A151S, F782A counted along it
Method: as §1, §2

## [Ca+2] [Ca^2+]
[1]; Ca^2+ alone
  EC50: 3.4 mM
  pEC50 ± S.E.M.: 2.47 ± 0.01
[1]; Ca^2+ alone, normalized to maximum response of WT CaSR
  Max ± S.E.M.: 87 ± 16%
[1]; Ca^2+ with 1 μM NPS R-568
  EC50: 3.88 mM
  pEC50 ± S.E.M.: 2.41 ± 0.04
[1]; Ca^2+ with 1 μM NPS R-568, normalized to maximum response with Ca^2+ alone for the construct
  Max ± S.E.M.: 100 ± 5%
[1]; Ca^2+ with 5 μM NPS 2143
  EC50: 3.46 mM
  pEC50 ± S.E.M.: 2.46 ± 0.02
[1]; Ca^2+ with 5 μM NPS 2143, normalized to maximum response with Ca^2+ alone for the construct
  Max ± S.E.M.: 91 ± 5.7%

## CC(C)(Cc1ccc2ccccc2c1)NC[C@@H](O)COc1cccc(Cl)c1C#N.Cl [NPS 2143, NPS 2143 hydrochloride]
[2]; S170A/E837A:F801A/E837A heterodimer, 0.2, 1 and 5 μM NPS 2143
  inhibition of Ca^2+-mediated response: not subjected to inhibition
[3]; S170A:F801A/E837A heterodimer, 5 μM NPS 2143
  inhibition of Ca^2+-mediated response: full inhibition
[1]; 5 μM NPS 2143
  effect on the Ca^2+-induced response: neither NPS R-568 nor NPS 2143 had any significant effect

## COc1cccc([C@@H](C)NCCCc2ccccc2Cl)c1.Cl [NPS R-568, NPS R-568 hydrochloride]
[2]; S170A/E837A:F801A/E837A heterodimer, 0.05, 0.1 and 1 μM NPS R-568
  potentiation of Ca^2+-mediated response: not potentiated
[3]; S170A:F801A/E837A heterodimer, 0.05, 0.1 and 1 μM NPS R-568
  potentiation of Ca^2+-mediated response: potentiated
[1]; 1 μM NPS R-568
  effect on the Ca^2+-induced response: neither NPS R-568 nor NPS 2143 had any significant effect
